From patent publication US12304938B2, “Processes and intermediates for preparing tirzepatide” (Eli Lilly and Company, priority 2022, dated 2025) come the findings set out here.

The nature of this data set: Physical stability of solid form on isolation/drying (crystallization screen). It is filed as physicochemical. The note with it: wet solids from 1:1 v/v ACN/MTBE slurry, upon isolation/drying. As for the experimental part:
A crystallization screen was performed on Fmoc-G-P-S(tBu)-S(tBu)-G-OH (SEQ ID NO: 19) free form using various solvents and solvent mixtures. Different crystallization methods were employed including solvent-based techniques such as slurry, cooling, ambient and sub-ambient temperatures holding, solvent/anti-solvent addition, or combination of techniques, and non-solvent-based techniques such as heat stress.
Three solid forms were identified: Fmoc-G-P-S(tBu)-S(tBu)-G-OH (SEQ ID NO: 19) Form A, Fmoc-G-P-S(tBu)-S(tBu)-G-OH (SEQ ID NO: 19) Form C, and Fmoc-G-P-S(tBu)-S(tBu)-G-OH (SEQ ID NO: 19) Form D. Form A was a solvated form produced from 1-propanol (1-PrOH) or mixtures containing 1-PrOH (such as 1-PrOH/heptane). Form D is a solvated form produced from acetonitrile (ACN) or mixtures containing ACN (such as ACN/MTBE). Form C is a conversion product when Form D is isolated and dried.
The suspension was seeded with Fmoc-G-P-S(tBu)-S(tBu)-G-OH (SEQ ID NO: 19) Form C and then left at ambient conditions to continue stirring for 2 days.

Peptide text beside a SMILES is read from it. * marks the point of attachment. Fmoc = O=C(OCC1c2ccccc2-c2ccccc21)*; tBu = CC(C)(C)*

In the case of `CC(C)(C)OC[C@H](NC(=O)[C@H](COC(C)(C)C)NC(=O)[C@@H]1CCCN1C(=O)CNC(=O)OCC1c2ccccc2-c2ccccc21)C(=O)NCC(=O)O` [Fmoc-Gly-Pro-Ser(tBu)-Ser(tBu)-Gly-OH] (Fmoc-GPS(tBu)S(tBu)G-OH), the “physical stability of solid form” value is “physically not stable”.
